In patent US20230357240A1, “NOVEL N-HETEROCYCLIC BET BROMODOMAIN INHIBITOR, AND PREPARATION METHOD THEREOF AND MEDICAL USE THEREOF” (Chengdu Easton Biopharmaceuticals Co., Ltd., priority 2020, published 2023):

Test system: MV4-11 cell
Assay: MV4-11 cell proliferation experiment (CCK-8 cell viability)
Assay type: cell-based
Details: Homo sapiens, MV4-11 cells, 72-hour culture
Description: EXAMPLE 9 Cell Experiment (MV4-11 Cell Proliferation Experiment)
Determination of Cell Viability with CCK-8 Reagent
(1) MV4-11 cell suspension was pipetted from a culture flask into a 15 mL centrifuge tube, and the cell suspension was centrifuged at 1000 rpm for 4 minutes.
(2) A supernatant in the centrifuge tube was discarded, and an appropriate amount of fresh complete medium (IMDM+10% FBS+1% P/S) was added to resuspend the cells. 20 μL of cell suspension was collected, 20 μL of trypan blue was added, and CounterStar was used for counting.
(3) A required cell suspension volume and complete medium volume were calculated according to viable cell density and the required number of plated cells. MV4-11 cells were plated at a density of 1*10^4 cells/well in 100 μL/well.
(4) 100 μL of the above cell suspension was pipetted into a 96-well plate by using an electric pipette. 150 μL of complete medium was added to blank control wells. PBS was added to peripheral wells of the 96-well plate, to avoid liquid evaporation. The 96-well plate was cultured overnight in an incubator.
Day 2: Compound Preparation:
(1) The compound of the present application dissolved in DMSO and the positive control substance ABBV-744 were fetched, and subjected to serial dilution (dilution in column A, column B, . . . , column J sequentially from left to right in a 96-well PCR plate).
An initial concentration of the solution in column A is 10 mM;
Column B: 2 μL of the solution in column A was diluted with 8 μL of DMSO to obtain a final concentration of 2000 μM;
Column C: 2 μL of the solution in column B was diluted with 8 μL of DMSO to obtain a final concentration of 400 μM;
Column D: 2 μL of the solution in column C was diluted with 8 μL of DMSO to obtain a final concentration of 80 μM;
Column E: 2 μL of the solution in column D was diluted with 8 μL of DMSO to obtain a final concentration of 16 μM;
Column F: 2 μL of the solution in column E was diluted with 8 μL of DMSO to obtain a final concentration of 3.2 μM;
Column G: 2 μL of the solution in column F was diluted with 8 μL of DMSO to obtain a final concentration of 0.64 μM;
Column H: 2 μL of the solution in column G was diluted with 8 μL of DMSO to obtain a final concentration of 0.128 μM;
Column I: 2 μL of the solution in column H was diluted with 8 μL of DMSO to obtain a final concentration of 0.0256 μM; and
Column J: 2 μL of the solution in column I was diluted with 8 μL of DMSO to obtain a final concentration of 0.00512 μM.
The suspension was centrifuged for 1 minute at 1000 rpm by using a low-speed centrifuge.
(2) 3×Compound Preparation: (Diluted in a 96-Well Cell Culture Plate)
3 μL of each of the solutions in columns B to J was pipetted into […] of complete medium by a 10 μL manual pipette to obtain 3×compound solutions with a final concentration of 30000, 6000, 1200, 240, 48, 9.6, 1.92, 0.384 and 0.0768 nM, respectively; and 3 μL of DMSO was pipetted into […] of complete medium as a control. The resulting 96-well cell culture plate was put on an oscillator to be oscillated at 500 rpm for 30 minutes.
(1) The prepared 3×compound solutions with the above concentrations were each pipetted by a manual pipette with its volume set to 50 μL into a corresponding well of the 96-well plate after overnight culture on the first day, and the total culture volume of each well was 150 μL. The final concentrations of the compounds in the 96-well plate were 10 μM, 2 μM, 400 nM, 80 nM, 16 nM, 3.2 nM, 0.64 nM, 0.128 nM and 0.0256 nM, respectively. The resulting 96-well plate was put on an oscillator to be oscillated at 500 rpm for 10 minutes.
(2) The 96-well plate as prepared was put in a CO2 incubator for 72-hour culture.
(1) CCK-8 test solution was pipetted into the 96-well cell culture plate in an amount of 15 μL/well by a pipette with a volume set to 15 μL.
(2) The 96-well plate was put in the CO2 incubator for 4-hour culture. […]

CCNC(=O)c1cc2c(-c3sc(C(C)(C)O)cc3N3CCc4ccccc43)cn(C)c(=O)c2[nH]1 [Compound 1, N-ethyl-4-(5-(2-hydroxypropyl-2-yl)-3-(indolin-1-yl)thiophen-2-yl)-6-methyl-7-oxo-6,7-dihydro-1H-pyrrolo[2,3-c]pyridine-2-carboxamide]
IC50: 1.98 nM
